Entries after “also recorded” stand apart in the source; their conditions may differ. Read-outs that look alike come from different tables or passages of the source. Peptide text beside a SMILES is read from it.
Tests used:
[1] = Stability testing by HPLC / LC-MS; format: physicochemical
Procedure: Chromatographic analyses were performed on an analytical high-pressure liquid chromatography system (HPLC) with MassLynx software (Version 4.1). Runs were carried out on a Zorbax C3 column (5 µm, 150 mm × 4.6 mm) with a 1.0 mL/min flow rate. The mobile phase A was 0.1% trifluoroacetic acid in MilliQ water and mobile phase B was 0.1% trifluoroacetic acid in acetonitrile. Gradients started with mobile phase A at 75% and ran at a 1% ramp to 65% mobile phase B. Samples were diluted using 3:7 ACN:MilliQ water to a concentration of 1.0 mg/mL and then passed through a 0.22 μm syringe filter before injecting 30 μL of the sample. The column and autosampler were maintained at 40 °C and 25 °C, respectively. A Waters 2487 UV detector monitored 215 nm, and mass spectra were collected from 50 to 3000 AMU. The capillary voltage was 3.00 kV, cone voltage was 30.00 V, extractor voltage was 3.00 V, RF lens voltage was 0.1 V, source temperature was 100 °C, cone gas flow was 50.0 L/h, and desolvation gas flow was 500 L/h[30],[88] for the electrospray source.
[…] The stability of peptide samples was then measured using HPLC[87].

A549 cells = assay: Cytocompatibility (CCK8); format: cell-based, human; settings: human alveolar epithelial A549 cells; 0.01-1 mM
Procedure: (§1) Cytocompatibility of the peptides was evaluated at 1, 0.1, and 0.01 mM with A549 cells (ATCC CCL-185) cultured in complete media consisting of 90% F-12K and 10% FBS. The A549 cells were utilized after their first passage and seeded at 10,000 cells/well in a 96-well plate for 24 hours. The conditions were prepared in serum-free A549 media and introduced into the wells for 6 hours, after which the condition media were aspirated, the wells were washed once with PBS, and 10 µL of CCK8 was added to 100 µL of PBS[32]. The plate was incubated for 1 hour and read on a Tecan M200 Infinite plate reader at an absorbance of 450 nm with a reference wavelength of 650 nm. The results were analyzed and normalized to the serum-free media control[28],[32],[76].

Cytocompatibility (CCK8) = format: cell-based, human; settings: human, A549 cells, read-out: cytocompatibility, normalized to serum free media; for viability at 6 h, 10 µM: 0.01 mM peptide; for viability at 6 h, 100 µM: 0.1 mM peptide; for viability at 6 h, 1000 µM: 1 mM peptide
Procedure: as §1

[2] = Acute IV pharmacokinetics; format: in vivo, rat (female Wistar); settings: ESBP3 200μL (10 mg/mL) IV bolus, Wistar rats (n=8)
Procedure: (§2) Female Wistar rats (225–250 g, 8–12 weeks old) were observed and acclimatized for 2 weeks prior to running the studies. They were housed in a controlled environment with temperature at […] and 40–70% humidity. They were kept in an alternating 12-hour light/dark cycle, and food, and water was provided as pellets ad libitum. Female Wistar Rats were used for the pharmacokinetics and the drug clearance analysis from the blood. The two hydrogels (ESBP2 and ESBP3) at 10 mg/ml concentration were injected into the rats via the lateral tail vein. For subcutaneous implants, the substance was injected between the shoulder blades and above the lumbar vertebrae, 200 μL each, using a 25-gauge needle. The hydrogel bolus was prepared with 0.9% saline and was injected within 1–2 minutes. The volume injected was approximately 1% of the total body weight of the rat, which was calculated prior to the dosing. The initial blood draw was performed for baseline, and the subsequent blood collection was performed from the lateral vein using 25 g butterfly needles.
Rat blood samples were collected at 0, 5, 15, 30 minutes, and 1, 2, 4, 8, and 24 hours post-injection timepoints for Acute PK and were aliquoted out into heparinized tubes to prevent coagulation and stored on top of ice packs. Blood collected in K2EDTA anticoagulant tubes was processed to plasma frozen via centrifugation at 13000 RCF for 10 minutes at 4 °C and stored at −80 °C till analysis using HPLC. The body weight was recorded every day prior to the blood collection.

[3] = test system: SARS-CoV-2 live virus (B.1 lineage), Vero E6 cells; format: cell-based
[4] = Subcutaneous bolus biocompatibility; format: in vivo, rat (female Wistar)
Procedure: The peptide hydrogel was prepared at 10 mg/mL in sterile saline and aspirated in sterile 1 mL syringes, with careful attention to avoid air bubbles. Female Wistar rats (225–250 g, 8–12 weeks old) were used for dorsal subcutaneous implantation. The rats were anesthetized using 2.5% isoflurane and […], after which the back of the rat’s hair was shaved and sterilized with 3 alternating applications of isopropanol and betadine. 200 µL boluses of the peptide hydrogel were injected with a 25 G needle at n = 4 for a time point of 7 days. After the time point, the animals were sacrificed, and the implant regions were collected and fixed overnight in 10% buffered formalin. The Rutgers Cancer Institute of New Jersey histology core processed the paraffin-embedded samples for histological evaluation after staining with hematoxylin and eosin and Masson’s Trichrome. Samples were also fixed in glutaraldehyde and formaldehyde, processed to eponate blocks, and sectioned with an ultramicrotome for electron microscopy imaging (above)[30],[76],[87].
as §2

SARS-CoV-2 Spike-RBD = SARS-CoV-2 Spike-RBD (Severe acute respiratory syndrome coronavirus 2, UniProt P0DTC2); format: binding

For CC[C@H](C)[C@H](NC(=O)[C@H](Cc1ccc(O)cc1)NC(=O)[C@@H](NC(=O)[C@H](CCCCN)NC(=O)[C@H](Cc1ccc(O)cc1)NC(=O)[C@H](CCC(N)=O)NC(=O)CNC(=O)[C@H](CCC(=O)O)NC(=O)[C@H](CC(C)C)NC(=O)[C@H](CO)NC(=O)[C@H](CC(C)C)NC(=O)[C@H](CO)NC(=O)[C@H](CC(C)C)NC(=O)[C@H](CO)NC(=O)[C@H](CC(C)C)NC(=O)[C@H](CO)NC(=O)[C@H](CC(C)C)NC(=O)[C@H](CO)NC(=O)[C@H](CC(C)C)NC(=O)[C@H](CO)NC(=O)[C@H](CCC(=O)O)NC(C)=O)[C@@H](C)O)C(=O)N[C@@H](CC(=O)O)C(=O)N[C@@H](CCCCN)C(=O)N[C@@H](CC(N)=O)C(=O)N[C@@H](CC(N)=O)C(=O)N[C@@H](Cc1c[nH]cn1)C(=O)N[C@@H](Cc1ccc(O)cc1)C(=O)N[C@@H](C)C(=O)N[C@@H](CCC(=O)O)C(=O)N[C@@H](CC(=O)O)C(=O)N[C@@H](CCC(=O)O)C(=O)N[C@@H](CCCNC(=N)N)C(=O)N[C@@H](Cc1ccc(O)cc1)C(=O)N[C@@H](CCCCN)C(N)=O [ESBP3] (Ac-ESLSLSLSLSLSLEGQYKTYIDKNNHYAEDERYK-NH2), the “stability of lyophilized peptide, in words” value ([1]; -20 °C, 4 °C, 25 °C and 37°C over 10 weeks, HPLC/LC-MS) was “exceptional”, the “stability, in words” value ([1]; lyophilized form and in formulation at a variety of temperatures over 12 weeks, HPLC) was “excellent stability” and the “degradation in aqueous formulation, in words” value ([1]; over 10 weeks, LC-MS) was “minimal”. The “cytocompatibility, in words” value (A549 cells) was “excellent cytocompatibility”, the viability at 6 h, 10 µM (Cytocompatibility (CCK8); replicate 1, CCK8, 6 h) was 91.9% and the viability at 6 h, 10 µM (Cytocompatibility (CCK8); replicate 2, CCK8, 6 h) was 85.4%. The viability at 6 h, 100 µM (Cytocompatibility (CCK8); replicate 1, CCK8, 6 h) was 87.2%, the viability at 6 h, 100 µM (Cytocompatibility (CCK8); replicate 2, CCK8, 6 h) was 97.6% and the viability at 6 h, 100 µM (Cytocompatibility (CCK8); replicate 3, CCK8, 6 h) was 85.4%. For the same molecule, the viability at 6 h, 1000 µM (Cytocompatibility (CCK8); replicate 1, CCK8, 6 h exposure, absorbance 450 nm) was 106%, the viability at 6 h, 1000 µM (Cytocompatibility (CCK8); replicate 2, CCK8, 6 h) was 125% and the viability at 6 h, 1000 µM (Cytocompatibility (CCK8); replicate 3, CCK8, 6 h) was 119%. For the same molecule, the “eliminated by” value [2] was ≤ 8 h, the Cmax ([2]; female, rat, plasma, 2 mg, at 5 min, read-out: observed maximum concentration) was ~550 µg/mL and the AUC ([2]; female, rat, plasma, 2 mg, read-out: AUC) was 395 µg·h/mL. The “Comparative, Average” value [3] was 66.6154, the “inhibition of live virus, in words” value [3] was “dose-dependent inhibition of live virus” and the “live virus plaque inhibition, in words” value [3] was “no major differences”. For the same molecule, the “peptide in plasma after subcutaneous bolus” value ([4]; 200 µL, 10 mg/mL, once, daily blood draws for 10 days) was “no detectable ESBP3”, the “subcutaneous bolus tolerability, in words” value ([4]; 200 µL, 10 mg/mL, once, rats, daily blood draws for 10 days) was “no significant body weight changes or adverse organ morphology; also recorded: no weight loss or adverse event” and the “histology of Sub-Q implanted boluses (H&E, Masson's Trichrome)” value ([4]; 7 days) was “infiltration of boluses with neutrophils/ macrophages”. For the same molecule, the “ITC binding to Spike RBD, in words” value (SARS-CoV-2 Spike-RBD) was “ESBP3-Spike-binding events” and the “ITC self-assembly, in words” value (SARS-CoV-2 Spike-RBD) was “supported spontaneous self-assembly”.

Reference: PMC10850501 (Nature Communications, 2024)
